Structures can show the parent of a compound that is named as a salt.

Holding throughout (assay type): cell-based
Test [1] concerns Escherichia coli (Migula1895) Castellani and Chalmers 1919AL, ATCC10536. Briefly: Kirby-Bauer Disk Diffusion method, Escherichia coli reference strain. The following applies: for inhibition zone: 25-41-52-41°C. An excerpt: The culture medium is Nutrient agar (Oxoid CM3) in g/litre Lab-Lemco beef extract 1; Yeast extract 2; Peptone 5; NaCl 5; Agar 15; pH7.4
(§1) For experimental purposes, the antimicrobial activities of the antibiotic standard solution of known concentration, of the yeasts within their incorporation broth after the methods steps, of the supernatants collected by centrifugation and of the pellets of the centrifuged yeasts, after each washing cycle, were compared, using a Kirby-Bauer Disk Diffusion method.
(§2) Sterile filter or blotter paper disks were laid down on the gelose, humidified with PBS 3 µl. 6 to 12µl of each above-mentioned fraction were then sucked into the blotting paper disk.
(In general: A growth-free zone around the sample is the usual read-out of agar diffusion tests.)

Test [2] deals with Streptococcus pyogenes Rosenbach 1884AL, ATCC12344. Briefly: Kirby-Bauer Disk Diffusion method, Streptococcus pyogenes reference strain. As to conditions: for inhibition zone diameter: Saccharomyces Lalvin.
Source text: Streptococcus pyogenes Rosenbach 1884AL, ATCC12344 comes from the BCCM-LMG Bacteria collection, accession number 21599, laboratorium voor microbiologie, UGent, B-9000 Gent. The culture medium is Brain Heart Infusion Broth of typical composition (g/litre) (brain extract, heart extract and peptones 27.5; D+glucose 2.0; sodium chloride 5.0; di-sodium hydrogen phosphate 2.5; agar-agar (not present in the broth) 15.0. Brain Heart Infusion Agar was purchased from Oxoid CM 0375. The medium may be enriched with a sterilized horse serum from defibrinated horse blood for 20 % of global volume. Brain Heart Infusion SM 225 from Oxoid may also be employed for streptococcus culture broth.
as §1
(§3) The selected reference strains were Streptococcus pyogenes Rosenbach1884AL (BCCM-LMG 21599) or Lactobacillus paracasei subsp. paracasei Collins, Phillips and Zanoni 1989 VP (BCCM-LMG 9192).
(§4) The streptococci or lactobacilli reference strains populations were counted in a Neubauer cell, and then diluted in PBS so as to obtain 2 million germs in one ml buffer: 0.5 ml of the diluted culture medium were then streaked on the agar plates. Another method for obtaining the suitable density of reference bacteria is the culture medium dilution in PBS so as to obtain with a filter photometer, an optical density of 0.04 at 620nm.
as §2

The test system of test [3] is Lactobacillus paracasei subsp. paracasei. Briefly: Kirby-Bauer Disk Diffusion method, Lactobacillus paracasei reference strain.
Source text: Lactobacillus paracasei subsp. paracasei Collins, Phillips and Zanoni 1989 VP, type strain of Lactobacillus casei subsp. pseudoplantarum, came from the BCCM-LMG Bacteria collection, accession number 9192, ATCC 25598, depositor NCIMB. Lactobacillus kefiri Kandler and Kunath 1983VL, BCCM-LMG Bacteria collection, accession number 9480, ATCC 35411. A modified Man, Rogosa, Sharpe medium has been used for the Lactobacillus kefiri and for Lactobacillus paracasei culture, as a reference strain for antibiotic activity of the yeast strains: the composition (g/liter) peptone 10.0; meat extract 8.0; yeast extract 4.0; glucose 20.0; orthophosphate 2.0; magnesium sulphate heptahydrate 0.2; manganese sulphate tetrahydrate 0.05; ferrous sulphate 0.01; agar 10.0 The pH is adjusted to 6.2 with acetic acid.
as §1, §3, §4, §2

The test system of test [4] is Streptococcus pyogenes or Lactobacillus paracasei. As to the kind of experiment: Kirby-Bauer Disk Diffusion method, reference strain not stated for the experiment. The following applies: Saccharomyces bayanus Lalvin, red grape juice + Potato Plus Juice, clarithromycin 2mg/ml, pH 4.0.
Source text: as §1, §3, §4, §2

Regarding `NCC[C@H](O)C(=O)N[C@@H]1C[C@H](N)[C@@H](O[C@H]2O[C@H](CN)[C@@H](O)[C@H](O)[C@H]2O)[C@H](O)[C@H]1O[C@H]1O[C@H](CO)[C@@H](O)[C@H](N)[C@H]1O` [Amikacine sulfate standard in TBS, Amikacine sulphate], the inhibition zone in test [1] (Kluyveromyces marxianus, red grape juice + potatoes juice with selenium, Amukin 1mg/ml, pH 4.0, violet photoinduction) was found to be 26.5 mm.

In the case of `CC[C@H]1OC(=O)[C@H](C)[C@@H](O[C@H]2C[C@@](C)(OC)[C@@H](O)[C@H](C)O2)[C@H](C)[C@@H](O[C@@H]2O[C@H](C)C[C@H](N(C)C)[C@H]2O)[C@](C)(OC)C[C@@H](C)C(=O)[C@H](C)[C@@H](O)[C@]1(C)O` [Clarithromycin standard (2mg/ml), clarithromycin], the “inhibition zone in diameter” value in test [2] (Kluyveromyces marxianus + Lactobacillus kefiri, red grape juice + sweet potatoes juice with selenium, clarithromycin, pH 4.0, 25-41-52-41°C, violet photoinduction) is on record as 47 mm. For the same molecule, the inhibition zone diameter was 38 mm in test [2] (YPD broth pH 6.5, clarithromycin 2mg/ml, simplified sequence 25-37-25°C (mild heat stress)); 37 mm in test [2] (red grape juice + raw potatoes juice with selenium, clarithromycin 2mg/ml, pH 4.0, thermal plates 25-41-52-41-35-25°C, 8µl on disk); 40.5 mm in test [3] (Saccharomyces Lalvin, YPD broth pH 6.5, clarithromycin 2mg/ml, experiment with lethal heat stress 25-34-55-34-25°C); 38 mm in test [3] (Saccharomyces Lalvin, red grape juice + raw potatoes juice with selenium, clarithromycin 2mg/ml, pH 4.0, 25-41-52-41-35-25°C, 8µl on disk). Further, the inhibition zone in test [3] (Saccharomyces Lalvin, clarithromycin 2mg/ml, pH 4.0, 25-41-43-35-25°C) is reported as 41 mm; in test [3] (Saccharomyces Lalvin, clarithromycin 2mg/ml, pH 4.0, 25-41-45-35-25°C), 41 mm; in test [3] (Saccharomyces Lalvin, clarithromycin 2mg/ml, pH 4.0, 25-41-47-35-25°C) it was 38.5 mm; in test [3] (Saccharomyces Lalvin, clarithromycin 2mg/ml, pH 4.0, 25-41-49-35-25°C), 40 mm; in test [3] (Saccharomyces Lalvin, clarithromycin 2mg/ml, pH 4.0, 25-41-51-35-25°C) it was 40 mm; in test [3] (Saccharomyces Lalvin, clarithromycin 2mg/ml, pH 4.0, 25-41-53-35-25°C) it was 40 mm. Moreover, the inhibition zone is recorded as 40 mm in test [3] (Saccharomyces Lalvin, clarithromycin 2mg/ml, pH 4.0, 25-41-54-35-25°C); 41 mm in test [3] (Saccharomyces Lalvin, red grape juice + Potato Plus Juice, clarithromycin 2mg/ml, pH 4.0, 25-41-41-35-25°C (upper plate 41°C)); 42 mm in test [3] (Saccharomyces bayanus Lalvin QA23, red grape juice + raw potatoes juice with selenium, clarithromycin 2mg/ml, pH 4.0, 25-41-52-41-35°C, skullcap extract after 35°C plate); 38.5 mm in test [3] (Saccharomyces bayanus Lalvin, clarithromycin 2mg/ml, pH 6.5, after sequence 25-41-52-41-35-25°C (last thermal plate), 8µl); 39.5 mm in test [3] (Saccharomyces bayanus Lalvin, medium a: red grape juice + Potato Plus Juice, clarithromycin 2mg/ml, pH 4.0, 25-41-52-41-35-25°C, violet photoinduction); 36.5 mm in test [3] (Saccharomyces bayanus Lalvin, medium c: red grape juice + Potato Plus Juice + spelt wheat hydrolysate, clarithromycin 2mg/ml, pH 6.5, 25-41-52-41-35-25°C, violet photoinduction). Besides, the inhibition zone in test [4] (after sequence 25-35-52-41°C (last thermal plate)) and in test [4] (after sequence 25-39-52-41°C (last thermal plate)) was 42 mm throughout.

As for `CC[C@H]1OC(=O)[C@H](C)[C@@H](O[C@H]2C[C@@](C)(OC)[C@@H](O)[C@H](C)O2)[C@H](C)[C@@H](O[C@@H]2O[C@H](C)C[C@H](N(C)C)[C@H]2O)[C@](C)(O)C[C@@H](C)C(=O)[C@H](C)[C@@H](O)[C@]1(C)O` [Erythromycin standard (2mg/ml), Erythromycin], the inhibition zone in test [2] (Saccharomyces bayanus Lalvin, red grape juice + alkaline hydrolyzed spelt wheat flour + parsley juice, erythromycin 1mg/ml, pH 7.0, 25-41-52-41-35-25°C, violet photoinduction, BHI agar with defibrinated horse blood) worked out at 48 mm.

Take `CS(=O)(=O)c1ccc([C@@H](O)[C@@H](CF)NC(=O)C(Cl)Cl)cc1` [Florfenicol]: the inhibition zone in test [1] (Saccharomyces bayanus Lalvin and Saccharomyces cerevisiae combined, red grape juice medium, florfénicol 2mg/ml, pH 7.5, 20µl deposit) is 39 mm.

Regarding `O=C1CN(/N=C/c2ccc([N+](=O)[O-])o2)C(=O)N1` [Standard nitrofurantoin in DMSO, 1mg/ml, Nitrofurantoin], in test [1] (20µl deposits, Saccharomyces cerevisiae bayanus Lalvin QA23, nitrofurantoin, pH around 7.0, 90minutes 41°C, 60minutes 52°C), the Inhibition zone diameters turned out to be 32 mm.

Source of the values: EP2813566A1, “Method for incorporating a compound into live yeast cells” (priority 2013, dated 2014).
